Test results published in patent US20150104507A1 (UCB PHARMA GMBH, priority 2010, published 2015).
Where “and” joins values, the source holds several entries; their conditions need not be identical. Equal values may be shown once. Read-outs that look alike come from different tables or passages of the source.

Columns and labels:
[1] = Thorough QT trial: dizziness as adverse event vs tmax; type: in vivo; settings: human, plasma, oral; day 6 of SP640; range 1-4 h; read-out: tmax, time for maximum LCM plasma concentration (median)
Method: In a thorough QT trial safety profile of lacosamide (LCM) was characterized. During day 2-6 of multiple dose administration of an IR formulation (Vimpat®) of 200 or 400 mg LCM bid 45 times ‘DIZZINESS’ was detected as adverse event (AE). Time of onset was 1.4+/−0.8 h after actual administration of LCM. This corresponds exactly to the typical time for maximum LCM plasma concentration tmax (e.g., 1 h (median, range 1-4 h) at day 6 of SP640).

[2] = PK-PD modeling of seizure frequency (Emax model, Example 54); type: in vivo, human; settings: human, plasma, read-out: Corresponding AUCτ,ss
Source text: (§1) Objectives of the PK-PD analysis were to evaluate and describe the correlation between the LCM plasma concentration over time (PK parameter) and the reduction of daily seizures over time (PD parameter) based on the pooled data from the previous clinical human trials.
(§2) The evaluation of PK-PD modeling was done based on the Emax model.
(§3) The slope of the linear regression is equal to the mean daily number of seizures.
(§4) In a first step, the validity of the developed equations for approximation of AUCτ,ss, the PK parameter of interest in the current PK-PD evaluation, was shown.
(§5) Based on the relative difference of the individual slopes during Titration and Maintenance Phase vs Baseline slope and the approximated AUCτ,ss,m, the PK-PD evaluation was performed using a linear model, the Emax model, and the Emax 100 model. […] Finally, the Emax model had the lowest weighted sum of squares and was therefore selected as the most appropriate PK-PD model to describe the data. […] The AUC50 is defined as the AUCτ,ss that is needed in individuals to achieve 50% of the maximum effect (decrease in seizure frequency).

[3] = system: subjects with partial-onset seizures; experiment: as above; type: in vivo, human
Source text: as §1, §2, §3, §4, §5

[4] = cited from earlier work
[5] = AUC of 67 μg/mL*h (mean dose 200 mg LCM bid)
[6] = Emax model, daily dose 50 mg bid (subject with Vd 50 L, ke 0.06 h^-1)
[7] = Emax model, daily dose 100 mg bid (subject with Vd 50 L, ke 0.06 h^-1)
[8] = Emax model, daily dose 110 mg bid (subject with Vd 50 L, ke 0.06 h^-1), AUC50
[9] = Emax model, daily dose 150 mg bid (subject with Vd 50 L, ke 0.06 h^-1)
[10] = Emax model, daily dose 200 mg bid (subject with Vd 50 L, ke 0.06 h^-1)
[11] = Emax model, daily dose 250 mg bid (subject with Vd 50 L, ke 0.06 h^-1)
[12] = Emax model, daily dose 300 mg bid (subject with Vd 50 L, ke 0.06 h^-1)

COC[C@@H](NC(C)=O)C(=O)NCc1ccccc1 [Lacosamide, (R)-2-Acetamido-N-benzyl-3-methoxypropionamide]
Tmax [1]: 1 h | AUC ([2]; 50 mg): 16700 ng·h/mL | AUC ([2]; 100 mg): 33300 ng·h/mL | AUC ([2]; 110 mg): 35900 ng·h/mL | AUC ([2]; 150 mg): 50000 ng·h/mL | AUC ([2]; 200 mg): 66700 ng·h/mL | AUC ([2]; 250 mg): 83300 ng·h/mL | AUC ([2]; 300 mg): 100000 ng·h/mL | decrease as percent of the maximum effect [3, 5]: 65% | decrease of the daily number of seizures [3, 5]: 46% | AUC50 (AUC needed to achieve half of the maximum effect), arithmetic mean (SD) ([3]; Emax model, N = 615 subjects): 35.9 (185.6) μg/mL*h | AUC50, 1st quantile ([3]; Emax model, N = 615 subjects): 0 µg·h/mL | AUC50, 3rd quantile ([3]; Emax model, N = 615 subjects): 27.27 µg·h/mL | AUC50, median ([3]; Emax model, N = 615 subjects): 1.05 µg·h/mL | AUC50, range ([3]; Emax model, N = 615 subjects): 0 to 3998 µg·h/mL | Emax, 3rd quantile ([3]; Emax model, N = 615 subjects): 100% | Emax, arithmetic mean (SD) ([3]; Emax model, N = 615 subjects): 71.0 (30.0) % | Emax, median ([3]; Emax model, N = 615 subjects): 77.0% | Emax, range ([3]; Emax model, N = 615 subjects): 0.06-100% | Emax, maximum effect (reduction of the seizure frequency vs baseline) ([3]; Emax model, pooled clinical trials, adjunctive LCM): 71% | AUC50 (AUC at steady-state to achieve half of the maximum decrease in partial seizure frequency), mean ([3]; Emax model, pooled clinical trials, listed as LCM): 35 µg·h/mL and 35.9 µg·h/mL | Decrease of daily number of seizures, E(AUC) % of Emax [3, 6]: 31.7 % of Emax | Decrease of daily number of seizures, E(AUC) % of base line [3, 6]: 22.5 % of base line | Decrease of daily number of seizures, E(AUC) % of Emax [3, 7]: 48.1 % of Emax | Decrease of daily number of seizures, E(AUC) % of base line [3, 7]: 34.2 % of base line | Decrease of daily number of seizures, E(AUC) % of Emax [3, 8]: 50 % of Emax | Decrease of daily number of seizures, E(AUC) % of base line [3, 8]: 35.1 % of base line | Decrease of daily number of seizures, E(AUC) % of Emax [3, 9]: 58.2 % of Emax | Decrease of daily number of seizures, E(AUC) % of base line [3, 9]: 41.3 % of base line | Decrease of daily number of seizures, E(AUC) % of Emax [3, 10]: 65.0 % of Emax | Decrease of daily number of seizures, E(AUC) % of base line [3, 10]: 46.1 % of base line | Decrease of daily number of seizures, E(AUC) % of Emax [3, 11]: 69.9 % of Emax | Decrease of daily number of seizures, E(AUC) % of base line [3, 11]: 49.6 % of base line | Decrease of daily number of seizures, E(AUC) % of Emax [3, 12]: 73.6 % of Emax | Decrease of daily number of seizures, E(AUC) % of base line [3, 12]: 52.2 % of base line | decrease as percent of the maximum effect ([3]; in vivo): 74% | decrease of the daily number of (partial) seizures ([3]; in vivo): 52% | maximum dosage-normalized steady state plasma level (Cmax, ss, norm) ([4]; IR tablets twice daily, average distribution volume 50 litres): 40 to 43 ng/mL/mg | Tmax ([4]; IR tablets, after administration): 1.4 to 1.5 h | elimination half-life ([4]; in vivo): 13 to 14 h | bioavailability ([4]; oral): ~100%
